Laboratory results from ChEMBL document CHEMBL5223080, “Discovery of Pyrrole-imidazole Polyamides as PD-L1 Expression Inhibitors and Their Anticancer Activity via Immune and Nonimmune Pathways” (J Med Chem, 2021).
Blank lines part the entries; values can stand above or below the molecule they belong to. Activity calls are given as the source filed them. No cut-off for these calls is given here.

How the values were obtained:
MRC5 = test: Cytotoxicity against human MRC5 cells at 32 uM by standard CCK-8 assay; type: toxicity, cell-based; settings: mrc5, 32 µM
DNA [1] = test: Binding affinity to wild type double stranded DNA (unknown origin) incubated for 24 hrs by Circular Dichroism assay; type: nucleic-acid assay
HCC827 [2] = test: Inhibition of PD-L1 protein expression in IFNgamma-induced human HCC827 cells measured for 36 hrs by Western blot analysis; type: functional, cell-based; settings: dose 1.25-10 µM
HCC827 [3] = test: Cytotoxicity against human HCC827 cells incubated for 36 hrs by standard CCK-8 assay; type: functional, cell-based; settings: for IC50: HCC827, 36 h; for Activity: dose 2-32 µM
dsDNA [4] = test: Binding affinity to human mutant double stranded DNA assessed as thermal stability of compound-DNA complex by measuring melting change in temperature at stoichiometry ratio 1:4 by UV melting assay; type: nucleic-acid assay
dsDNA [5] = test: Binding affinity to human wild-type double stranded DNA assessed as thermal stability of compound-DNA complex by measuring change in melting temperature at stoichiometry ratio 1:4 by UV melting assay; type: nucleic-acid assay
[6] = (§1) Induction of T-cell mediated cell killing in human MDA-MB-231 cells co-cultured with PMA-activated Jurkat T cells assessed as IL-2 production at 8 uM by ELISA relative to control; type: functional
HCC827 [7] = test: Antimigratory activity in human HCC827 cells assessed as inhibition rate at 2 uM measured after 48 hrs by Wound healing assay relative to control; type: functional; parameters: scale not given: the % may be the effect or the level left
MDA-MB-231 [8] = test: Induction of apoptosis in human MDA-MB-231 cells assessed as inhibition of Akt phosphorylation at 10 uM by Western blot analysis; type: functional, cell-based
HCC827 [9] = test: Antimigratory activity in human HCC827 cells assessed as inhibition rate at 0.5 to 1 uM measured after 48 hrs by Wound healing assay relative to control; type: functional; parameters: scale not given: the % may be the effect or the level left; settings: dose 0.5-1 µM
HCC827 [10] = test: Inhibition of PD-L1 mRNA expression in IFNgamma-induced human HCC827 cells measured for 36 hrs by qRT-PCR analysis; type: functional, cell-based; settings: dose 1.25-10 µM
MDA-MB-231 [11] = test: Inhibition of PD-L1 protein expression in IFNgamma-induced human MDA-MB-231 cells measured for 36 hrs by Western blot analysis; type: functional, cell-based; settings: dose 1.25-10 µM
MDA-MB-231 [12] = test: Antimigratory activity in human MDA-MB-231 cells assessed as inhibition rate at 2 uM measured after 48 hrs by Wound healing assay relative to control; type: functional; parameters: scale not given: the % may be the effect or the level left
MDA-MB-231 [13] = test: Induction of apoptosis in human MDA-MB-231 cells assessed as inhibition of pro-caspase 3 at 10 uM by Western blot analysis; type: functional, cell-based
[14] = (§2) Induction of T-cell mediated cytotoxicity against human MDA-MB-231 cells co-cultured with Jurkat cells assessed as apoptotic cells at 8 uM incubated for 36 hrs by standard CCK-8 assay relative to control; type: functional
HCC827 [15] = test: Induction of apoptosis in human HCC827 cells co-cultured with human Jurkat T cells at 8 uM relative to control; type: functional
MDA-MB-231 [16] = test: Antitumour activity against human MDA-MB-231 cells assessed as measuring interleukin-2 levels by ELISA; type: functional
dsDNA [17] = test: Binding affinity to human 5'-biotin-double stranded DNA assessed as dissociation rate constant by surface plasmon resonance; type: nucleic-acid assay
MDA-MB-231 [18] = test: Inhibition of PD-L1 mRNA expression in IFNgamma-induced human MDA-MB-231 cells measured for 36 hrs by qRT-PCR analysis; type: functional, cell-based; settings: dose 1.25-10 µM
[19] = (§3) Induction of T-cell mediated cytotoxicity against human HCC827 cells co-cultured with Jurkat cells assessed as apoptotic cells at 8 uM incubated for 36 hrs by standard CCK-8 assay relative to control; type: functional
dsDNA [20] = test: Binding affinity to human wild-type double stranded DNA assessed as thermal stability of compound-DNA complex by measuring change in melting temperature at stoichiometry ratio 1:0.5 by UV melting assay; type: nucleic-acid assay
[21] = (§4) Induction of T-cell mediated cell killing in human HCC827 cells co-cultured with PMA-activated Jurkat T cells assessed as IL-2 production at 8 uM by ELISA relative to control; type: functional
DNA [22] = test: Binding affinity to wild type double stranded DNA (unknown origin) at 1:1 compound to DNA ratio incubated for 24 hrs at 340 nm by Circular Dichroism assay; type: nucleic-acid assay
dsDNA [23] = test: Binding affinity to human mutant double stranded DNA assessed as thermal stability of compound-DNA complex by measuring melting temperature change in at stoichiometry ratio 1:0.5 by UV melting assay; type: nucleic-acid assay
MDA-MB-231 [24] = test: Induction of apoptosis in human MDA-MB-231 cells co-cultured with human Jurkat T cells at 8 uM relative to control; type: functional
MDA-MB-231 [25] = test: Cytotoxicity against human MDA-MB-231 cells incubated for 36 hrs by standard CCK-8 assay; type: functional, cell-based; settings: for IC50: MDA-MB-231, 36 h; for Activity: dose 2-32 µM
Homo sapiens [26] = species: Homo sapiens; test: Binding affinity to 5'-biotin-double stranded DNA (unknown origin) assessed as saturation of the compound-DNA complex at 350 to 500 nM by surface plasmon resonance; settings: dose 350-500 nM
HCC827 [27] = test: Induction of apoptosis in human HCC827 cells assessed as inhibition of pro-caspase 3 at 10 uM by Western blot analysis; type: functional, cell-based
dsDNA [28] = test: Binding affinity to human wild-type double stranded DNA assessed as thermal stability of compound-DNA complex by measuring change in melting temperature at stoichiometry ratio 1:1 by UV melting assay; type: nucleic-acid assay
dsDNA [29] = test: Binding affinity to human mutant double stranded DNA assessed as thermal stability of compound-DNA complex by measuring change in melting temperature at stoichiometry ratio 1:1 by UV melting assay; type: nucleic-acid assay
dsDNA [30] = test: Binding affinity to human 5'-biotin-double stranded DNA assessed as dissociation equilibrium constant by surface plasmon resonance; type: nucleic-acid assay
HCC827 [31] = test: Induction of apoptosis in human HCC827 cells assessed as inhibition of Akt phosphorylation at 10 uM by Western blot analysis; type: functional, cell-based
DNA [32] = test: Binding affinity to wild type 28 nucleotide double stranded DNA (unknown origin) in PD-L1 gene promotor region at 1:1 compound to DNA ratio incubated for 24 hrs by Circular Dichroism assay; type: nucleic-acid assay
HCC827 [33] = test: Antitumour activity against human HCC827 cells assessed as measuring interleukin-2 levels by ELISA; type: functional
MDA-MB-231 [34] = test: Antimigratory activity in human MDA-MB-231 cells assessed as inhibition rate at 0.5 to 1 uM measured after 48 hrs by Wound healing assay relative to control; type: functional; parameters: scale not given: the % may be the effect or the level left; settings: dose 0.5-1 µM
Jurkat = test: Cytotoxicity against human Jurkat cells at 8 uM incubated for 36 hrs by standard CCK-8 assay; type: toxicity, cell-based
[35] = Binding affinity to human single stranded DNA (unknown origin) by electrophoretic mobility shift assay
DNA [36] = test: Binding affinity to wild-type double stranded DNA (unknown origin) by assessed as decrease in compound-DNA complex at >=8 uM by competitive electrophoretic mobility shift assay; type: nucleic-acid assay
dsDNA [37] = test: Binding affinity to human 5'-biotin-double stranded DNA assessed as association rate constant by surface plasmon resonance; type: nucleic-acid assay
[38] = Binding affinity to DNA STAT3 binding site of PD-L1 promoter region (unknown origin) assessed as disappearance of band of wild-type double stranded DNA-STAT3 protein complex at > 8 uM by competitive electrophoretic mobility shift assay
MDA-MB-231 [39] = test: as §1; type: functional
MDA-MB-231 [40] = test: as §2; type: functional
HCC827 [41] = test: as §3; type: functional
HCC827 [42] = test: as §4; type: functional
Homo sapiens [43] = species: Homo sapiens; test: Binding affinity to DNA STAT3 binding site of PD-L1 promoter region assessed as effect on binding of STAT3 protein to STAT3 binding site of PD-L1 promoter region by competitive electrophoretic mobility shift assay
[44] = Binding affinity to DNA STAT3 binding site of PD-L1 promoter region (unknown origin) by electrophoretic mobility shift assay

- Activity (DNA [1]): Active
- ΔTm (dsDNA [4]): 0.4 °C
- ΔTm (dsDNA [5]): 7.3 °C
- Kd (dsDNA [17]): 32.3 10^-2/s
- ΔTm (dsDNA [20]): 2.9 °C
- Activity (DNA [22]): Active
- ΔTm (dsDNA [23]): 0.1 °C
- Activity (Homo sapiens [26]): Active
- ΔTm (dsDNA [28]): 7 °C
- ΔTm (dsDNA [29]): 0.2 °C
- Kd (dsDNA [30]): 0.0499 µM
- Activity (DNA [32]): Active
- Activity [35]: inactive
- Activity (DNA [36]): Active
- Ka (dsDNA [37]): 6.47 10^6/M/s
- Activity [38]: Active
Structure (SMILES): CC(=O)Nc1cc(C(=O)Nc2cc(C(=O)Nc3cc(C(=O)Nc4cn(C)c(C(=O)Nc5cn(C)c(C(=O)NCCC(=O)Nc6cn(C)c(C(=O)NCCCC(=O)Nc7cc(C(=O)Nc8cc(C(=O)Nc9cc(C(=O)NCCC(=O)Nc%10cc(C(=O)Nc%11cn(C)c(C(=O)Nc%12cc(C(=O)NCCC(=O)NCCCN(C)C)n(C)c%12)n%11)n(C)c%10)n(C)c9)n(C)c8)n(C)c7)n6)n5)n4)n(C)c3)n(C)c2)n(C)c1.Cl
- Activity (MRC5): Non-Toxic
- inhibition (HCC827 [2]): Dose-Dependent Effect
- IC50 (HCC827 [3]): 11.8 µM
- Activity (HCC827 [3]): Dose-Dependent Effect
- Activity [6]: 60.35%
- Activity (HCC827 [7]): >70%
- Activity (MDA-MB-231 [8]): Active
- Activity (HCC827 [9]): 50%
- inhibition (HCC827 [10]): Dose-Dependent Effect
- inhibition (MDA-MB-231 [11]): Dose-Dependent Effect
- Activity (MDA-MB-231 [12]): 86.33%
- inhibition (MDA-MB-231 [13]): Active
- Activity [14]: 82.11%
- Activity (HCC827 [15]): 269.14%
- Activity (MDA-MB-231 [16]): 87.89 pg/mL
- inhibition (MDA-MB-231 [18]): Dose-Dependent Effect
- Activity [19]: 70%
- Activity [21]: 57%
- Activity (MDA-MB-231 [24]): 30.84%
- IC50 (MDA-MB-231 [25]): 9.05 µM
- Activity (MDA-MB-231 [25]): Dose-Dependent Effect
- inhibition (HCC827 [27]): Active
- Activity (HCC827 [31]): Active
- Activity (HCC827 [33]): 51.17 pg/mL
- Activity (MDA-MB-231 [34]): 50%
- Activity (Jurkat): Non-Toxic

- ΔTm (dsDNA [5]): 0.7 °C
- ΔTm (dsDNA [20]): 0.2 °C
- Activity (Homo sapiens [43]): inactive
- ΔTm (dsDNA [28]): 0.4 °C
- Activity [44]: inactive
- Activity [35]: inactive
Structure (SMILES): CC(=O)Nc1cc(C(=O)Nc2cc(C(=O)Nc3cc(C(=O)Nc4cn(C)c(C(=O)NCCC(=O)Nc5cn(C)c(C(=O)NCCCC(=O)Nc6cc(C(=O)Nc7cc(C(=O)NCCC(=O)Nc8cn(C)c(C(=O)Nc9cn(C)c(C(=O)Nc%10cc(C(=O)NCCC(=O)NCCCN(C)C)n(C)c%10)n9)n8)n(C)c7)n(C)c6)n5)n4)n(C)c3)n(C)c2)n(C)c1.Cl
- Activity (MRC5): Non-Toxic
- inhibition (HCC827 [2]): inactive
- IC50 (HCC827 [3]): > 200 µM
- Activity (HCC827 [3]): inactive
- Activity (MDA-MB-231 [39]): inactive
- inhibition (MDA-MB-231 [11]): inactive
- Activity (MDA-MB-231 [40]): inactive
- Activity (MDA-MB-231 [16]): inactive
- Activity (HCC827 [41]): inactive
- Activity (HCC827 [42]): inactive
- IC50 (MDA-MB-231 [25]): > 200 µM
- Activity (MDA-MB-231 [25]): inactive
- Activity (HCC827 [33]): inactive
- Activity (Jurkat): Non-Toxic
